For series [1], the system named is P-glycoprotein (human MDR1). Description: in vitro. The note with it: dog; for Papp: MDCK-MDR1, pH 7.4, permeability, MDR1-MDCKII.
Method: Permeability of compounds was assessed using canine MDR1 knockout and human MDR1 knockin MDCKII cells (MDR1-MDCKII) (Sigma-Aldrich, MTOX1303) in confluent monolayers expressing P-glycoprotein (P-gp) at Enamine biological services Bienta LTD (Kyiv, Ukraine).
Canine MDR1 knockout, human MDR1 knockin MDCKII cell (MDR1-MDCKII) (Sigma-Aldrich,
MTOX1303) suspension (400 μl) was added to each well of high throughput screening multiwell
insert system plates. Test compounds were prepared as 20 mM DMSO stocks. The test compound
(300 µl) was dissolved in transport buffer (9.5 g/l Hanks’ balanced salt solution and 0.35 g/l NaHCO3
wells whereas 1000 µl of transport buffer was added to transport analysis plate wells in order to
determine apical (A) to basolateral (B) transport. Basolateral to apical transport was measured by
adding 1000 µl of the test compound solution into the transport analysis plate wells whereas 300
µl of buffer was used to fill the filter plate wells.
were taken from the donor and receiver compartments for LC-MS/MS analysis. Samples were
mixed with acetonitrile followed by protein sedimentation by centrifugation at 1000 rpm for 10 min.
HPLC coupled with tandem mass spectroscopy was performed using the Shimadzu Prominence
HPLC system coupled with the API 5000 (PE Sciex) spectrometer. Both the positive and negative
ion modes of the TurboIonSpray ion source were used. The apparent permeability (Papp) was
computed using the equation 1, where VA is the volume of transport buffer in acceptor wel, Area is
the surface area of the insert, Time is the assay time, [drug]acc is the peak area of test compound
in acceptor well, and [drug]initial,d is the initial amount of the test compound in a donor well.
Series [2] addresses T1, SARS-CoV-2 NSP3 Mac1 (Severe acute respiratory syndrome coronavirus 2, UniProt P0DTD1). Format: binding. The following applies: for 1-BDC / PanDDA hit? / Modeled?: crystal soak; for 1-BDC (PanDDA): 1 minus background density correction; for 1-BDC (PanDDA) / Refined occupancy: crystal soaking of Mac1; for Refined occupancy: ligand occupancy after refinement (phenix.refine).
Another series addresses T2, TARG1 (Homo sapiens, UniProt Q9Y530).
T2 construct: Targ1_HTRF; HTRF assay; pET22b(+); His6, TEV; 1-153; made in house
T2 sequence (Q9Y530 with tags, fused parts or gaps): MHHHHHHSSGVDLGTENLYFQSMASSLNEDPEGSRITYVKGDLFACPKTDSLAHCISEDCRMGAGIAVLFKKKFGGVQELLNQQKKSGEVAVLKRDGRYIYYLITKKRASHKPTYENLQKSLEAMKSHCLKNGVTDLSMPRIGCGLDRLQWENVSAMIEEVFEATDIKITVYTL
The series is described as follows: adapted HTRF-based peptide displacement assay (off-target). The note with it: for binding / activity against TARG1: compound at 160 µM. Format: binding.

Another series concerns the target T3, MacroD2 (Homo sapiens, UniProt A1Z1Q3).
T3 construct: MacroD2_HTRF; HTRF assay; pET22b(+); His6, TEV, Avi; made in house
T3 sequence (A1Z1Q3 with tags, fused parts or gaps): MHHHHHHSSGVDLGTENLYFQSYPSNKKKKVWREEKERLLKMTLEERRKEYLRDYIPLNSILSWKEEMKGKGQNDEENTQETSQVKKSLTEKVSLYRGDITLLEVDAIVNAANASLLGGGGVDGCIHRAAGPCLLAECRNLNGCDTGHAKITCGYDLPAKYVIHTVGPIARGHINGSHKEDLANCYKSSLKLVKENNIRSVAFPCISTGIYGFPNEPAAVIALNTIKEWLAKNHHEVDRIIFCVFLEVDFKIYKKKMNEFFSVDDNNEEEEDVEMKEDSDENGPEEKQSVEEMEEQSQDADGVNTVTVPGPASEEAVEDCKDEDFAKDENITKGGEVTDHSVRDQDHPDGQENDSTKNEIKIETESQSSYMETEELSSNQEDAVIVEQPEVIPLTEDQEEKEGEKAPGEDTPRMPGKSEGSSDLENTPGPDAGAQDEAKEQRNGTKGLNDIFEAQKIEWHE
Described as above. The note with it: for binding / activity against MacroD2: compound at 160 µM. In kind it is binding.

The target of series [3] is T1, SARS-CoV-2 NSP3 Mac1. Description: biochemical. Format: binding.
In series [4] the test system is SARS-CoV-2 NSP3 Mac1. The series is described as follows: Overall hit call (binding in crystallographic soaking or the HTRF-based binding assay). The text has this: Supplement pnas.2212931120.sd01.xlsx, sheet "Compound Summary" | column: HIT*
In series [5] the target is T1, SARS-CoV-2 NSP3 Mac1. Set-up: contains a conserved macrodomain enzyme (Mac1); differential scanning fluorimetry, maximum thermal upshift. The note with it: binder.
Series [6] deals with T1, SARS-CoV-2 NSP3 Mac1. More on the design: contains a conserved macrodomain enzyme (Mac1); Differential scanning fluorimetry of Mac1, maximum thermal upshift. The following applies: maximum shift over tested concentrations; binder.
The target in series [7] is T1, SARS-CoV-2 NSP3 Mac1. Description: biochemical. More on the design: HTRF ADPr-peptide displacement assay with Mac1, dose-response IC50. The following applies: read-out: IC50 [µM] / 0.5, 1.2, 1.4.
Where [8] appears, read: PanDDA event map, Compound_concentration 100 mM, Echo_dispense_volume 40 nl.
Setting [9] is: Compound_concentration 100 mM, Echo_dispense_volume 40 nl, PanDDA run (background map) dmso_34, nohits_35 or nohits_62.

Where “and” joins values, the source holds several entries; their conditions need not be identical. Equal entries are not always repeated. Where two headings read alike, the source gives them in different places.

The source of these data is paper PMC9926234, “Iterative computational design and crystallographic screening identifies potent inhibitors targeting the Nsp3 macrodomain of SARS-CoV-2” (Proceedings of the National Academy of Sciences of the …, 2023).

By Papp A→B is commonly meant the apparent permeability from the apical to the basolateral side of a cell layer. Low readings indicate slow passage, high ones fast passage. The term Papp B→A denotes how fast a substance crosses the layer from the basolateral side. What is called Ki is the equilibrium dissociation constant of an inhibitor or competing ligand from its target. As usually defined, the Papp is the rate of passage across a membrane or cell layer, normalised by area and donor concentration. Higher therefore signals fast passage.

`O=C(NC1c2cccc(O)c2CC1C(=O)O)c1ccc2[nH]cnc2c1` (stereo not drawn) [Z8539_2001]: the Papp A→B in series [1] (MDCK-MDR1, pH 7.4) turned out to be 1.1 ± 0.1 ×10⁻⁶ cm/s. Also, the Papp B→A in series [1] (MDCK-MDR1, pH 7.4) amounted to 0.5 ×10⁻⁶ cm/s. The 1-BDC was 0.23 and 0.42 on SARS-CoV-2 NSP3 Mac1 [2] (PanDDA event map background density correction, compound concentration 100 mM); 0.21 on SARS-CoV-2 NSP3 Mac1 [2] (setting [8]). Further, on SARS-CoV-2 NSP3 Mac1 [2] (PanDDA event map), the “1-BDC (PanDDA)” value is reported as 0.23. Moreover, the “PanDDA hit?” value at SARS-CoV-2 NSP3 Mac1 [2] (setting [9]) is on record as “TRUE”. For the same compound, the “Modeled?” value on SARS-CoV-2 NSP3 Mac1 [2] (ligand modeled in the crystal structure, compound concentration 100 mM) was “TRUE”. The compound further came in with a Refined occupancy on SARS-CoV-2 NSP3 Mac1 [2] of 46. Moreover, the “selectivity for viral Mac1 over human macrodomain” value is given as “selective for viral Mac1” on TARG1 (versus TARG1, in words) and “selective for viral Mac1” at MacroD2 (versus MacroD2, in words). In addition, at SARS-CoV-2 NSP3 Mac1 [3], the “binding to Mac1 in the HTRF assay, result in words” value is reported as “did not affect the binding affinity”. In addition, at SARS-CoV-2 NSP3 Mac1 [3] (HTRF ADPr-conjugated peptide displacement, read-out: IC50), the IC50 stood at 5.4 µM. The Ki on SARS-CoV-2 NSP3 Mac1 [3] (read-out: Ki***) amounted to 4.7 µM. The “HIT*” value with SARS-CoV-2 NSP3 Mac1 [4] is given as “Y”.

For `O=C(O)[C@H]1CCCC[C@H]1Nc1ncnc2[nH]c3cc(F)ccc3c12` [LRH-0021], the values for the Papp in series [1] (apical to basal) and in series [1] (basal to apical) were 12 ×10⁻⁶ cm/s and 9.1 ×10⁻⁶ cm/s, respectively. The “1-BDC (PanDDA)” value on SARS-CoV-2 NSP3 Mac1 [2] (PanDDA event map) is on record as 0.12. Besides, the 1-BDC on SARS-CoV-2 NSP3 Mac1 [2] (setting [8]) is 0.05; at SARS-CoV-2 NSP3 Mac1 [2] (PanDDA event map, Compound_concentration 100 mM, Echo_dispense_volume 80 nl), 0.12. The “PanDDA hit?” value at SARS-CoV-2 NSP3 Mac1 [2] (setting [9]) is “TRUE”; on SARS-CoV-2 NSP3 Mac1 [2] (Compound_concentration 100 mM, Echo_dispense_volume 80 nl, PanDDA run dmso_34), “TRUE”. In addition, at SARS-CoV-2 NSP3 Mac1 [2] (ligand modeled, Compound_concentration 100 mM, Echo_dispense_volume 80 nl), the “Modeled?” value was “TRUE”. This compound also came in with a Refined occupancy on SARS-CoV-2 NSP3 Mac1 [2] of 24. The “binding / activity against TARG1” value on TARG1 is on record as “showed binding”. In addition, on SARS-CoV-2 NSP3 Mac1 [3], the “binding to Mac1 in the HTRF assay, result in words” value is on record as “equipotent to LRH-0003”. The same compound had an IC50 at SARS-CoV-2 NSP3 Mac1 [3] (IC50 [µM], HTRF ADPr-conjugated peptide displacement) of 1.7 µM. The Ki at SARS-CoV-2 NSP3 Mac1 [3] (Ki*** [µM]) came to 1.5 µM. For the same compound, the “HIT*” value with SARS-CoV-2 NSP3 Mac1 [4] was “Y”.

On to `O=C1CCCC1Nc1ncnc2[nH]c3cc(F)ccc3c12` (stereo not drawn) [LRH-0008], for which the “binding / activity against TARG1” value at TARG1 is “neither neutral compounds LRH-0003 and LRH-0008 had measurable binding”. Also, the “binding / activity against MacroD2” value at MacroD2 is “neither neutral compounds LRH-0003 and LRH-0008 had measurable binding”. The IC50 at SARS-CoV-2 NSP3 Mac1 [3] (HTRF ADPr-peptide displacement from SARS-CoV-2 Mac1, read-out: IC50) was 13.4 µM. Also, the Ki on SARS-CoV-2 NSP3 Mac1 [3] (read-out: Ki***) came out at 11.7 µM. For the same compound, the “HIT*” value in the series with SARS-CoV-2 NSP3 Mac1 [4] was “Y”.

Consider `O=C1CCCN1Nc1ncnc2[nH]c3cc(F)ccc3c12` [LRH-0003], for which the Papp is 13.8 ×10⁻⁶ cm/s in [1] (apical to basal) and 24.3 ×10⁻⁶ cm/s in [1] (basal to apical). For the same compound, at TARG1, the “binding / activity against TARG1” value was “neither neutral compounds LRH-0003 and LRH-0008 had measurable binding”. For the same compound, the “binding / activity against MacroD2” value at MacroD2 is “neither neutral compounds LRH-0003 and LRH-0008 had measurable binding”.

Regarding `Nc1ncnc2c1ncn2Cc1cc(-c2ccco2)on1` [Z4827, ZINC000681764827], at SARS-CoV-2 NSP3 Mac1 [5], the “DSF max dTma” value is 0.63 degC.

Consider `O=C(NC1c2cccc(O)c2CC1C(=O)O)c1ccc(NCC2CC2)nc1` (stereo not drawn) [Z8539_0009, 8539_0009], for which the “DSF max dTma” value on SARS-CoV-2 NSP3 Mac1 [6] came out at 2.03 °C. For the same compound, the IC50 on SARS-CoV-2 NSP3 Mac1 [7] amounted to 17.1 µM.

Consider `O=C(NC1c2cccc(O)c2CC1C(=O)O)c1cnc(NC2CCOCC2)cn1` (stereo not drawn) [Z8539_0007, 8539_0007], for which the “DSF max dTma” value at SARS-CoV-2 NSP3 Mac1 [6] was 3.42 °C. Moreover, the IC50 at SARS-CoV-2 NSP3 Mac1 [7] stood at 6.4 µM.

For `O=C(NC1c2cccc(O)c2CC1C(=O)O)c1cnc2c(c1)CCCN2` (stereo not drawn) [Z8539_0006, 8539_0006], the “DSF max dTma” value at SARS-CoV-2 NSP3 Mac1 [5] is 0 degC. The IC50 at SARS-CoV-2 NSP3 Mac1 [7] was 168 µM.

In series [1] (MDCK-MDR1, pH 7.4), `O=C(Nc1ccc(C(=O)NC2c3cccc(O)c3CC2C(=O)O)cc1)NC1CC1` (stereo not drawn) [Z8539] displayed a Papp A→B at 90 min, 10 µM of 1.1 ± 0.1 ×10⁻⁶ cm/s and a Papp B→A at 90 min, 10 µM of 0.5 ×10⁻⁶ cm/s. Further, the Papp at 90 min, 10 µM in [1] (MDCK-MDR1, pH 7.4, cell permeability, MDCK cells, direction not given) came out at 1.1 ×10⁻⁶ cm/s.

For `Nc1ncnc2c1ncn2Cc1ccc(Cl)cn1` [Z0078, ZINC000559260078], the “DSF max dTma” value at SARS-CoV-2 NSP3 Mac1 [5] is reported as 0.98 degC.
